Measurements reported in paper PMC7821958, “Synthesis, in vitro enzyme activity and molecular docking studies of new benzylamine-sulfonamide derivatives as selective MAO-B inhibitors” (Journal of Enzyme Inhibition and Medicinal Chemistry, 2020).
Read-outs that look alike come from different tables or passages of the source.

Assays:
[1] = target: T1, hMAO-A (Homo sapiens, UniProt P21397); experiment: MAO-A inhibition assay, fluorometric (Amplex Red / horseradish peroxidase-coupled); type: biochemical; conditions: read-out: MAO-A % Inhibition
T1 construct: purchased Sigma-Aldrich (Steinheim, Germany)
T1 sequence (P21397 1-527): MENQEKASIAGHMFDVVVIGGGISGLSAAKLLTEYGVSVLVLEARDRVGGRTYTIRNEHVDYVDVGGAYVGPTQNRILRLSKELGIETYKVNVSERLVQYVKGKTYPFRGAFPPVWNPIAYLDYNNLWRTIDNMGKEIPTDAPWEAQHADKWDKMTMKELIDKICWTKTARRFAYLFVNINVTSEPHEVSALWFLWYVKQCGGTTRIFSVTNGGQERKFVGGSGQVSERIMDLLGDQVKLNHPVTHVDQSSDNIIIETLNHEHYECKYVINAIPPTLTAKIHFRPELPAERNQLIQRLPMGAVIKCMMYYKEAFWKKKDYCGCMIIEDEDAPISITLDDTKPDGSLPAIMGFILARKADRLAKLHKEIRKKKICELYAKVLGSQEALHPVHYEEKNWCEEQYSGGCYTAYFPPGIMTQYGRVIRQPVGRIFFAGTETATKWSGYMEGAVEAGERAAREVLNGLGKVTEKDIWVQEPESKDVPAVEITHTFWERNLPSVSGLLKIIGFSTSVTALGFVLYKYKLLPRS
Procedure: A Biotek Precision XS robotic system (USA) was used for all pipetting operations. Measurements were performed with the use of BioTek-Synergy H1 microplate reader (USA) based upon the fluorescence generated (excitation, 535 nm, emission, 587 nm) over a 30 min period, in which the fluorescence increased linearly.
Enzymatic assay was performed according to recent method pronounced by our research group[17]^,[20–22]. Control, blank and all concentrations of obtained compounds were tested in quadruplicate and inhibition percent was calculated with following equation: % Inhibition=(FCt2 − FCt1) − (FIt2 − FIt1)/FCt2 − FCt1 × 100
FCt2: Fluorescence of a control well measured at t2 time, FCt1: Fluorescence of a control well measured at […]: Fluorescence of an inhibitor well measured at t2 time, FIt1: Fluorescence of an inhibitor well measured at t1 time,
The IC50 values were calculated using a dose-response curve achieved by plotting the percentage inhibition versus the log concentration using GraphPad ‘PRISM’ software (version 5.0).
All the obtained benzylamine-sulphonamide derivatives 4a–4u were investigated for their inhibitory activity against MAO isoforms using a previously described in vitro fluorometric method, which is based on the detection of H2O2 in a horseradish peroxidase-coupled reaction using 10-acetyl-3,7-dihydroxyphenoxazine (Amplex Red reagent)[17]^,[20–22].
The assay was carried out in two steps. […].

[2] = target: T2, hMAO-B (Homo sapiens, UniProt P27338); experiment: MAO-B inhibition assay, fluorometric (Amplex Red / horseradish peroxidase-coupled); type: biochemical; conditions: for inhibition at 1000 µM: 10^−3 M; for inhibition at 100 µM: 10^−4 M; for inhibition at 10 µM: 10^−5 M; for inhibition at 1 µM: 10^−6 M; for inhibition at 0.1 µM: 10^−7 M; for inhibition at 0.01 µM: 10^−8 M; for inhibition at 0.001 µM: 10^−9 M; for IC50: Table 2, mean ± SD, read-out: IC50 against MAO-B;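 for all read-outs here: fluorescence read at Ex 535 nm and Em 587 nm over 30 min, linear phase, inhibition relative to uninhibited control wells, IC50 from log concentration–response curves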
T2 construct: purchased Sigma-Aldrich (Steinheim, Germany)
T2 sequence (P27338 1-520): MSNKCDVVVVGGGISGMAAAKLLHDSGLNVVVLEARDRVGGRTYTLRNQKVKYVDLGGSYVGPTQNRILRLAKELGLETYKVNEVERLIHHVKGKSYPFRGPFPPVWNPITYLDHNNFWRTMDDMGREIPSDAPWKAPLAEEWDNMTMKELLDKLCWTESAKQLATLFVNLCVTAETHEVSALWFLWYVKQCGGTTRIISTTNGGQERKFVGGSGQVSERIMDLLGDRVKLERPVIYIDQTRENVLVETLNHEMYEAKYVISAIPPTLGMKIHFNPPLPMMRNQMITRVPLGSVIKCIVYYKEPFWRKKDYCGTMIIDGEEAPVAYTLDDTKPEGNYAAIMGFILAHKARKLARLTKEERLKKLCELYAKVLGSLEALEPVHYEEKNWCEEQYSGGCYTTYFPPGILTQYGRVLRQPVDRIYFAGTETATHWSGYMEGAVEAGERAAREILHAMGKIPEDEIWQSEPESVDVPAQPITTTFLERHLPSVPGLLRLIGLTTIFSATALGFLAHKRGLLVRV
Text: FCt2: Fluorescence of a control well measured at t2 time, FCt1: Fluorescence of a control well measured at t2 time, FIt2: Fluorescence of an inhibitor well measured at t2 time, FIt1: Fluorescence of an inhibitor well measured at t1 time,

Structure (SMILES) | inhibition at 1000 µM ([1]; 10^−3 M) | inhibition at 100 µM ([1]; 10^−4 M) | inhibition at 1000 µM [2] | inhibition at 100 µM [2] | inhibition at 10 µM [2] | inhibition at 1 µM [2] | inhibition at 0.1 µM [2] | inhibition at 0.01 µM [2] | inhibition at 0.001 µM [2] | IC50 [2] | melting point | inhibition at 100 µM [1] | inhibition at 1000 µM [1]
Cn1nnnc1SCC(=O)N(Cc1ccccc1)c1ccc(S(N)(=O)=O)cc1 [Compound 4d, N-Benzyl-2-((1-methyl-1H-tetrazol-5-yl)thio)-N-(4-sulfamoylphenyl)acetamide] | 39.2 ± 0.65% | 29.5 ± 0.489% | 91.6 ± 1.25% | 79.7 ± 1.46% | 76.2 ± 1.06% | 70.9 ± 1.01% | 47.5 ± 0.957% | 29.7 ± 0.723% | 15.2 ± 0.602% | 0.127 ± 0.005 µM | – | – | –
Cc1nnc(SCC(=O)N(Cc2ccccc2)c2ccc(S(N)(=O)=O)cc2)s1 [Compound 4c, N-Benzyl-2-((5-methyl-1,3,4-thiadiazol-2-yl)thio)-N-(4-sulfamoylphenyl)acetamide] | 40.6 ± 0.749% | 24.1 ± 0.61% | 91.1 ± 1.25% | 48.3 ± 0.855% | – | – | – | – | – | – | 164 to 166 °C | – | –
COc1ccc2sc(SCC(=O)N(Cc3ccccc3)c3ccc(S(N)(=O)=O)cc3)nc2c1 [Compound 4j, N-Benzyl-2-((5-methoxybenzothiazol-2-yl)thio)-N-(4-sulfamoylphenyl)acetamide] | 48.2 ± 0.825% | 37.4 ± 0.679% | 90.8 ± 1.25% | 45.1 ± 0.958% | – | – | – | – | – | – | – | – | –
COc1ccc2sc(SCC(=O)N(Cc3ccc(C)cc3)c3ccc(S(N)(=O)=O)cc3)nc2c1 [Compound 4u, 2-((5-Methoxybenzothiazol-2-yl)thio)-N-(4-methylbenzyl)-N-(4-sulfamoylphenyl)acetamide] | 36.8 ± 0.678% | 29.9 ± 0.539% | 65.1 ± 0.985% | 36 ± 0.726% | – | – | – | – | – | – | – | – | –
Cc1ccc(CN(C(=O)CSc2nnnn2-c2ccccc2)c2ccc(S(N)(=O)=O)cc2)cc1 [Compound 4o, N-(4-Methylbenzyl)-2-((1-phenyl-1H-tetrazol-5-yl)thio)-N-(4-sulfamoylphenyl)acetamide] | 44.2 ± 0.877% | 28.7 ± 0.509% | 68.3 ± 0.824% | 30.3 ± 0.721% | – | – | – | – | – | – | – | – | –
Cc1ccc(CN(C(=O)CSc2nccn2C)c2ccc(S(N)(=O)=O)cc2)cc1 [Compound 4k, 2-((1-Methyl-1H-imidazol-2-yl)thio)-N-(4-methylbenzyl)-N-(4-sulfamoylphenyl)acetamide] | 39.3 ± 0.701% | 30.3 ± 0.582% | 79.5 ± 0.957% | 39 ± 0.702% | – | – | – | – | – | – | 153 to 155 °C | – | –
Cn1ccnc1SCC(=O)N(Cc1ccccc1)c1ccc(S(N)(=O)=O)cc1 [Compound 4a, N-Benzyl-2-((1-methyl-1H-imidazol-2-yl)thio)-N-(4-sulfamoylphenyl)acetamide] | 35.1 ± 0.989% | 26.5 ± 0.856% | 92.3 ± 1.11% | 47 ± 0.958% | – | – | – | – | – | – | 137 to 139 °C | – | –
Cc1ccc(CN(C(=O)CSc2nncn2C)c2ccc(S(N)(=O)=O)cc2)cc1 [Compound 4l, 2-((4-Methyl-4H-1,2,4-triazol-3-yl)thio)-N-(4-methylbenzyl)-N-(4-sulfamoylphenyl)acetamide] | 42.3 ± 0.63% | 25.2 ± 0.712% | 74.2 ± 1.05% | 43.8 ± 0.882% | – | – | – | – | – | – | 229 to 231 °C | – | –
Cc1ccc(CN(C(=O)CSc2nnc(C)s2)c2ccc(S(N)(=O)=O)cc2)cc1 [Compound 4m, 2-((5-Methyl-1,3,4-thiadiazol-2-yl)thio)-N-(4-methylbenzyl)-N-(4-sulfamoylphenyl)acetamide] | 37.4 ± 0.85% | 31.1 ± 0.729% | 76.3 ± 1% | 40.1 ± 0.799% | – | – | – | – | – | – | 178 to 180 °C | – | –
NS(=O)(=O)c1ccc(N(Cc2ccccc2)C(=O)CSc2nnnn2-c2ccccc2)cc1 [Compound 4e, N-Benzyl-2-((1-phenyl-1H-tetrazol-5-yl)thio)-N-(4-sulfamoylphenyl)acetamide] | 41.5 ± 0.899% | 28 ± 0.714% | 90.1 ± 1.01% | 48.4 ± 0.721% | – | – | – | – | – | – | – | – | –
Cc1ccc(CN(C(=O)CSc2ccccn2)c2ccc(S(N)(=O)=O)cc2)cc1 [Compound 4p, N-(4-Methylbenzyl)-2-(pyridin-2-ylthio)-N-(4-sulfamoylphenyl)acetamide] | 45.2 ± 0.971% | 24.9 ± 0.792% | 70.5 ± 1.07% | 35.6 ± 0.622% | – | – | – | – | – | – | 121 to 123 °C | – | –
NS(=O)(=O)c1ccc(N(Cc2ccccc2)C(=O)CSc2nc3ccccc3o2)cc1 [Compound 4g, 2-(Benzoxazol-2-ylthio)-N-benzyl-N-(4-sulfamoylphenyl)acetamide] | 47.2 ± 0.979% | 32.2 ± 0.621% | 94.7 ± 1.34% | 47.3 ± 0.963% | – | – | – | – | – | – | 82 to 84 °C | – | –
NS(=O)(=O)c1ccc(N(Cc2ccccc2)C(=O)CSc2ccccn2)cc1 [Compound 4f, N-Benzyl-2-(pyridin-2-ylthio)-N-(4-sulfamoylphenyl)acetamide] | 46 ± 0.863% | 30.1 ± 0.627% | 90.6 ± 1.39% | 83.3 ± 1.26% | 76.3 ± 1.11% | 73.2 ± 1.06% | 48.6 ± 0.957% | 32.5 ± 0.721% | 20.9 ± 0.623% | 0.146 ± 0.006 µM | – | – | –
C#CCN(C)CCCOc1ccc(Cl)cc1Cl [Clorgiline, reference compound] | – | – | – | – | – | – | – | – | – | – | – | 98.3 ± 1.82% | 99.4 ± 1.96%
Cc1ccc(CN(C(=O)CSc2nc3ccccc3s2)c2ccc(S(N)(=O)=O)cc2)cc1 [Compound 4s, 2-(Benzothiazol-2-ylthio)-N-(4-methylbenzyl)-N-(4-sulfamoylphenyl)acetamide] | 38.2 ± 0.734% | 33 ± 0.697% | 72.7 ± 1% | 40.3 ± 0.835% | – | – | – | – | – | – | 170 to 172 °C | – | –
Cn1cnnc1SCC(=O)N(Cc1ccccc1)c1ccc(S(N)(=O)=O)cc1 [Compound 4b, N-Benzyl-2-((4-methyl-4H-1,2,4-triazol-3-yl)thio)-N-(4-sulfamoylphenyl)acetamide] | 37.6 ± 0.714% | 20.1 ± 0.621% | 90.3 ± 1.3% | 86.3 ± 1.29% | 82.5 ± 1.11% | 76.9 ± 1.27% | 45.3 ± 0.974% | 32.6 ± 0.728% | 20.4 ± 0.683% | 0.188 ± 0.008 µM | 201 to 203 °C | – | –
Cc1ccc(CN(C(=O)CSc2nnnn2C)c2ccc(S(N)(=O)=O)cc2)cc1 [Compound 4n, 2-((1-Methyl-1H-tetrazol-5-yl)thio)-N-(4-methylbenzyl)-N-(4-sulfamoylphenyl)acetamide] | 40.2 ± 0.97% | 21.5 ± 0.632% | 72.2 ± 0.959% | 38.3 ± 0.638% | – | – | – | – | – | – | – | – | –
NS(=O)(=O)c1ccc(N(Cc2ccccc2)C(=O)CSc2nc3ccccc3s2)cc1 [Compound 4h, 2-(Benzothiazol-2-ylthio)-N-benzyl-N-(4-sulfamoylphenyl)acetamide] | 39.1 ± 0.821% | 20.3 ± 0.608% | 96.2 ± 1.1% | 48.8 ± 0.879% | – | – | – | – | – | – | 88 to 90 °C | – | –
Cc1ccc(CN(C(=O)CSc2nc3ccccc3o2)c2ccc(S(N)(=O)=O)cc2)cc1 [Compound 4r, 2-(Benzoxazol-2-ylthio)-N-(4-methylbenzyl)-N-(4-sulfamoylphenyl)acetamide] | 42.4 ± 0.821% | 32.7 ± 0.697% | 67.5 ± 0.957% | 33.1 ± 0.798% | – | – | – | – | – | – | 148 to 150 °C | – | –
